The values that follow come from DBAASP.

Among the test systems are Staphylococcus aureus; Listeria innocua; Micrococcus luteus A270; Escherichia coli; Escherichia coli 780; Staphylococcus aureus 75; Escherichia coli 804.
Holding throughout (assay): ≥ marks a high value that may be exact or a test limit, other limits are often not marked, values filed in µg/mL are converted to µM
For assay [1], the system named is Streptococcus mutans UA159.
In assay [2] the test system is Streptococcus gordonii Challis DL1.
For assay [3], the system named is Streptococcus sanguinis NY101.
For assay [4], the system named is Pseudomonas aeruginosa PAK.
In assay [5] the test system is Streptococcus mitis ATCC 903.
In assay [6] the test system is Salmonella enterica subsp. enterica serovar Enteritidis.
Assay [7] has as its system Staphylococcus aureus ATCC BAA-1556.
Assay [8] deals with Staphylococcus aureus 113.
Assay [9] has as its system Pseudomonas aeruginosa 50.
Assay [10] relates to Klebsiella pneumoniae ATCC 700603.
The subject of assay [11] is Acinetobacter baumannii ATCC 19606.
In assay [12] the test system is Acinetobacter baumannii 97830.
The test system of assay [13] is Acinetobacter baumannii 9931.
Assay [14] deals with Pseudomonas aeruginosa ATCC 9027.
For assay [15], the system named is Pseudomonas aeruginosa ATCC 27853.
Assay [16] relates to Staphylococcus aureus ATCC 29213.
The test system of assay [17] is Bacillus subtilis ATCC 23857.
Assay [18] deals with Staphylococcus epidermidis ATCC 12228.
The subject of assay [19] is Pseudomonas aeruginosa 73.
Assay [20] concerns Pseudomonas aeruginosa LMG 6395.
In assay [21] the test system is Acinetobacter baumannii LMG 01041.
For assay [22], the system named is Escherichia coli LMG 15862.
Assay [23] relates to Klebsiella aerogenes LMG 02094.
Assay [24] concerns Klebsiella pneumoniae LMG 20218.

SMILES strings stand for the structures. Converted amounts (≈) assume the structure as drawn.

In the case of `CC[C@H](C)[C@H](NC(=O)[C@H](Cc1ccccc1)NC(=O)[C@H](Cc1cnc[nH]1)NC(=O)[C@H](CCCCN)NC(=O)[C@@H](NC(=O)[C@@H](N)Cc1ccccc1)[C@@H](C)CC)C(=O)N[C@@H](Cc1cnc[nH]1)C(=O)N[C@@H](CCCN=C(N)N)C(=O)N[C@@H](Cc1ccccc1)C(=O)N[C@@H](CO)C(=O)NCC(=O)NCC(=O)N[C@@H](CCCN=C(N)N)C(=O)N[C@@H](Cc1c[nH]c2ccccc12)C(=O)N[C@@H](CCCN=C(N)N)C(=O)N[C@@H](Cc1c[nH]c2ccccc12)C(=O)N[C@@H](CCCN=C(N)N)C(=O)N[C@@H](Cc1c[nH]c2ccccc12)C(=O)N[C@@H](Cc1ccccc1)C(N)=O` [FIKHFIHRFSGGRWRWRWF], the MIC against Staphylococcus aureus was 12.2 µM (≈ 32 µg/mL); in assay [1], 3.05 µM (≈ 8 µg/mL); in assay [2], 12.2 µM (≈ 32 µg/mL); in assay [3], 12.2 µM (≈ 32 µg/mL); in [4] it was 23.9 µM (≈ 62.5 µg/mL); in [5] it was 12.2 µM (≈ 32 µg/mL).
With `CC(C)C[C@H](N)C(=O)N[C@@H](C)C(=O)N[C@@H](Cc1cnc[nH]1)C(=O)N[C@@H](CCCN=C(N)N)C(=O)N[C@@H](Cc1ccc(O)cc1)C(=O)N[C@@H](Cc1cnc[nH]1)C(=O)O` [LAHRYH], the minimal inhibitory concentration (MIC) in the assay on Listeria innocua was 10 µM (≈ 7.96 µg/mL); in the assay on Micrococcus luteus A270, 9 µM (≈ 7.16 µg/mL); in assay [6] it was 9 µM (≈ 7.16 µg/mL); in the assay with Escherichia coli it was 2 µM (≈ 1.59 µg/mL).
`CC(C)C[C@H](NC(=O)[C@H](CC(C)C)NC(=O)[C@H](CC(C)C)NC(=O)[C@H](CC(C)C)NC(=O)[C@H](CC(C)C)NC(=O)[C@H](CC(C)C)NC(=O)[C@H](CCCCN)NC(=O)[C@H](CCCCN)NC(=O)[C@@H](N)CC(C)C)C(N)=O` [LKKLLLLLL]: the MIC in [7] was at least 100 µM.
`CC(C)C[C@H](NC(=O)[C@H](CCCCN)NC(=O)[C@H](CC(C)C)NC(=O)[C@H](CC(C)C)NC(=O)[C@H](CC(C)C)NC(=O)[C@H](CC(C)C)NC(=O)[C@H](CC(C)C)NC(=O)[C@H](CCCCN)NC(=O)[C@@H](N)CC(C)C)C(N)=O` [LKLLLLLKL] had an MIC in assay [7] of at least 100 µM.
The same measure, in the same setting: the value for `CC(C)C[C@H](NC(=O)[C@H](CC(C)C)NC(=O)[C@H](CC(C)C)NC(=O)[C@H](CCCCN)NC(=O)[C@H](CC(C)C)NC(=O)[C@H](CC(C)C)NC(=O)[C@H](CC(C)C)NC(=O)[C@@H](N)CC(C)C)C(=O)N[C@@H](CCCCN)C(N)=O` [LLLLKLLLK] was at least 100 µM.
Turning to `CC(C)C[C@H](NC(=O)[C@H](CCCN=C(N)N)NC(=O)[C@H](CCCN=C(N)N)NC(=O)[C@H](Cc1c[nH]c2ccccc12)NC(=O)[C@H](Cc1c[nH]c2ccccc12)NC(=O)[C@H](Cc1c[nH]c2ccccc12)NC(=O)[C@H](CCCN=C(N)N)NC(=O)[C@H](CCCN=C(N)N)NC(=O)[C@@H](N)CC(C)C)C(N)=O` [LRRWWWRRL], the MIC in assay [8] was 4 µM (≈ 5.71 µg/mL); in assay [9], 8 µM (≈ 11.4 µg/mL); in assay [10] it was 32 µM (≈ 45.7 µg/mL); in the assay with Escherichia coli 780, 8 µM (≈ 11.4 µg/mL); in the assay with Staphylococcus aureus 75, 4 µM (≈ 5.71 µg/mL); in assay [11], 64 µM (≈ 91.3 µg/mL). In addition, the MIC in [12] was 16 µM (≈ 22.8 µg/mL); in assay [13], 16 µM (≈ 22.8 µg/mL); in the assay with Escherichia coli 804, at least 32 µM; in assay [14], 16 µM (≈ 22.8 µg/mL); in [15], 16 µM (≈ 22.8 µg/mL); in assay [16] it was 4 µM (≈ 5.71 µg/mL). In addition, the MIC is 2 µM (≈ 2.85 µg/mL) in assay [17], 2 µM (≈ 2.85 µg/mL) in [18] and at least 64 µM in assay [19].
For the molecule `CC(C)C[C@H](NC(=O)[C@H](CCCN=C(N)N)NC(=O)[C@H](Cc1c[nH]c2ccccc12)NC(=O)[C@H](Cc1c[nH]c2ccccc12)NC(=O)[C@H](Cc1c[nH]c2ccccc12)NC(=O)[C@H](CCCN=C(N)N)NC(=O)[C@@H](N)CC(C)C)C(N)=O` [LRWWWRL], the MIC in assay [8] turned out to be 8 µM (≈ 8.91 µg/mL); in assay [9], 16 µM (≈ 17.8 µg/mL); in [10], 32 µM (≈ 35.7 µg/mL); with Escherichia coli 780 it was 16 µM (≈ 17.8 µg/mL); against Staphylococcus aureus 75, 4 µM (≈ 4.46 µg/mL); in assay [11] it was 64 µM (≈ 71.3 µg/mL). Further, the MIC in assay [12] is 16 µM (≈ 17.8 µg/mL); in assay [13], 16 µM (≈ 17.8 µg/mL); with Escherichia coli 804 it was 16 µM (≈ 17.8 µg/mL); in assay [14] it was 32 µM (≈ 35.7 µg/mL); in assay [15], 16 µM (≈ 17.8 µg/mL); in assay [16], 4 µM (≈ 4.46 µg/mL). Further, the MIC in [17] is 8 µM (≈ 8.91 µg/mL); in assay [18], 8 µM (≈ 8.91 µg/mL); in assay [19], at least 32 µM.
In the case of `CC[C@H](C)[C@H](NC(=O)[C@H](CCCN=C(N)N)NC(=O)[C@H](CCCN=C(N)N)NC(=O)[C@H](CCCCN)NC(=O)[C@@H](NC(=O)[C@@H](N)CCCN=C(N)N)[C@@H](C)CC)C(=O)N[C@@H](CCCCN)C(=O)N[C@@H](CCCCN)C(=O)N[C@@H](Cc1c[nH]c2ccccc12)C(=O)N[C@@H](CC(C)C)C(=O)N[C@@H](CCCN=C(N)N)C(N)=O` [RIKRRIKKWLR], the MIC was at least 32 µM in assay [20]; at least 256 µM in [21]; 24 µM (≈ 37.2 µg/mL) in assay [22]; at least 256 µM in [23]; at least 256 µM in [24].
Turning to `CC[C@H](C)[C@H](NC(=O)[C@H](CCCN=C(N)N)NC(=O)[C@H](CCC(N)=O)NC(=O)[C@@H](NC(=O)[C@@H](NC(=O)[C@@H](N)CCCN=C(N)N)[C@@H](C)CC)C(C)C)C(=O)N[C@@H](CCCCN)C(=O)N[C@@H](CCCCN)C(=O)N[C@@H](Cc1c[nH]c2ccccc12)C(=O)N[C@@H](CC(C)C)C(=O)N[C@@H](CCCN=C(N)N)C(N)=O` [RIVQRIKKWLR], the MIC in assay [20] is 16 µM (≈ 23.9 µg/mL); in [21], at least 64 µM; in assay [22], 12 µM (≈ 17.9 µg/mL); in assay [23] it was at least 128 µM; in assay [24], at least 32 µM.
For the molecule `CC[C@H](C)[C@H](NC(=O)[C@H](CCCN=C(N)N)NC(=O)[C@H](CCC(N)=O)NC(=O)[C@@H](NC(=O)[C@@H](NC(=O)[C@@H](N)CCCN=C(N)N)[C@@H](C)CC)C(C)C)C(=O)N[C@@H](CCCCN)C(=O)N[C@@H](CCCCN)C(=O)N[C@@H](Cc1c[nH]c2ccccc12)C(=O)N[C@@H](CCCN=C(N)N)C(N)=O` [RIVQRIKKWR], the MIC in assay [20], in [21], in assay [22], in [23] and in assay [24] was at least 256 µM in each case.
For the molecule `NC(=O)[C@H](Cc1c[nH]c2ccccc12)NC(=O)[C@H](Cc1c[nH]c2ccccc12)NC(=O)[C@H](CCCN=C(N)N)NC(=O)[C@H](Cc1c[nH]c2ccccc12)NC(=O)[C@H](Cc1c[nH]c2ccccc12)NC(=O)[C@H](Cc1c[nH]c2ccccc12)NC(=O)[C@H](CCCN=C(N)N)NC(=O)[C@H](Cc1c[nH]c2ccccc12)NC(=O)[C@@H](N)Cc1c[nH]c2ccccc12` [WWRWWWRWW], the MIC in assay [8] is 16 µM (≈ 26.1 µg/mL); in assay [9], at least 128 µM; in [10], 32 µM (≈ 52.3 µg/mL); in the assay with Escherichia coli 780 it was at least 64 µM; against Staphylococcus aureus 75, 8 µM (≈ 13.1 µg/mL); in assay [11] it was over 128 µM. Besides, the MIC is at least 64 µM in assay [12]; at least 32 µM in assay [13]; at least 64 µM in the assay with Escherichia coli 804; over 128 µM in assay [14]; over 128 µM in assay [15]; 8 µM (≈ 13.1 µg/mL) in assay [16]. The MIC in [17] is 4 µM (≈ 6.53 µg/mL); in assay [18], 4 µM (≈ 6.53 µg/mL); in assay [19], at least 128 µM.
